Measured values from patent publication US20250066346A1, “SOLID FORMS OF A BENZTHIAZOLE-PIPERAZINYL-OXAZOLE COMPOUND AND METHODS OF USE THEREOF” (Hepagene Therapeutics (HK) Limited, priority 2022, published 2025).
≈ marks a conversion by molar mass, not a printed value. Counter-ions that a name gives are not always drawn. Blank lines part the entries; values can stand above or below the compound they belong to.

Assays:
Type in all cases: physicochemical
[1] = Solid state stability (XRPD for physical stability, HPLC purity for chemical stability); conditions: for Purity/initial purity: HPLC; for Form change: XRPD
Description: All the samples were characterized by XRPD for physical stability and HPLC purity for chemical stability evaluation (Table 16).

[2] = Kinetic solubility in water and bio-relevant media (SGF, FaSSIF, FeSSIF) at 37° C.; set-up: key to FC: form change: Yes: form changed; No: form not changed; conditions: for pH: filtered supernatant
Protocol: Agilent 1260 HPLC was utilized and detailed chromatographic conditions are provided in Tables 3 and 4 for purity and solubility test, respectively.
About 20 mg of free base (form A) HCl salt (form B), and HBr salt (form D) were added to a 5-mL glass vials followed by the addition of 4 mL of the corresponding medium/solvent into each glass vial to form a suspension. The vials were capped and rolled at 37° C. (25 rpm). Samples were removed (1 mL) at 1 h, 4 h, and 24 h and centrifuged (14000 rpm, 2 min, room temperature). The supernatant was filtered through 0.22 μm syringe filter (first few drops of filtrate were discarded) for HPLC solubility and pH tests (Table 15). The residual solids were analyzed by XRPD.

[3] = Hygroscopicity by dynamic vapor sorption (DVS) at 25° C.
Protocol: DVS was measured via a SMS (Surface Measurement Systems) DVS Intrinsic. The relative humidity at 25° C. was calibrated against deliquescence point of LiCl, Mg(NO3)2 and KCl.

[4] = Approximate solubility of Form A in solvents at room temperature (stepwise solvent addition, visual); conditions: organic solvent or mixture, thermodynamic from solid
Protocol: Approximately 2 mg of Form A of Compound I was added into a 3-mL glass vial. At room temperature, the solvents in Table 8 were then added stepwise into the vials until the solids were dissolved visually or a total volume of 2 mL was reached.

[5] = 80° C./1 day, 25° C./60% RH/1 week, 40° C./75% RH/1 week

Purity/initial purity ([1]; 25° C./60% RH/1 week): 100.0%
Form change ([1]; 25° C./60% RH/1 week): No
Purity/initial purity ([1]; 40° C./75% RH/1 week): 100.0%
Form change ([1]; 40° C./75% RH/1 week): No
solid state stability (overall, in words) [1, 5]: good solid state stability
Purity/initial purity ([1]; 80° C./1 day): 100.0%
Form change ([1]; 80° C./1 day): No
solubility in FaSSIF and FeSSIF (in words) [2]: significant solubility improvement
FC: form change ([2]; FaSSIF, 1 hr): No
S: solubility ([2]; FaSSIF, 1 hr): 290 µg/mL
pH ([2]; FaSSIF, 1 hr): 6.5
FC: form change ([2]; FaSSIF, 4 hrs): No
S: solubility ([2]; FaSSIF, 4 hrs): 420 µg/mL
pH ([2]; FaSSIF, 4 hrs): 6.5
FC: form change ([2]; FaSSIF, 24 hrs): No
S: solubility ([2]; FaSSIF, 24 hrs): 570 µg/mL
pH ([2]; FaSSIF, 24 hrs): 6.4
FC: form change ([2]; FeSSIF, 1 hr): No
S: solubility ([2]; FeSSIF, 1 hr): 480 µg/mL
pH ([2]; FeSSIF, 1 hr): 5.1
FC: form change ([2]; FeSSIF, 4 hrs): No
S: solubility ([2]; FeSSIF, 4 hrs): 480 µg/mL
pH ([2]; FeSSIF, 4 hrs): 5.0
FC: form change ([2]; FeSSIF, 24 hrs): No
S: solubility ([2]; FeSSIF, 24 hrs): 500 µg/mL
pH ([2]; FeSSIF, 24 hrs): 5.0
FC: form change ([2]; H2O, 1 hr): No
S: solubility ([2]; H2O, 1 hr): 4.9 µg/mL
pH ([2]; H2O, 1 hr): 6.1
FC: form change ([2]; H2O, 4 hrs): No
S: solubility ([2]; H2O, 4 hrs): 5.6 µg/mL
pH ([2]; H2O, 4 hrs): 5.9
FC: form change ([2]; H2O, 24 hrs): No
S: solubility ([2]; H2O, 24 hrs): 6.1 µg/mL
pH ([2]; H2O, 24 hrs): 6.4
FC: form change ([2]; SGF, 1 hr): No
S: solubility ([2]; SGF, 1 hr): 61 µg/mL
pH ([2]; SGF, 1 hr): 1.8
FC: form change ([2]; SGF, 4 hrs): No
S: solubility ([2]; SGF, 4 hrs): 48 µg/mL
pH ([2]; SGF, 4 hrs): 1.9
FC: form change ([2]; SGF, 24 hrs): Yes
S: solubility ([2]; SGF, 24 hrs): 39 µg/mL
pH ([2]; SGF, 24 hrs): 1.8
water uptake ([3]; in the range of 0% RH to 30% RH, platform between 30% RH and 95% RH): 2.5%
SMILES: COc1cc(C(=O)O)cc2sc(N3CCN(Cc4c(-c5c(Cl)cccc5Cl)noc4C4CC4)C[C@H]3C)nc12 [HCl salt Form B, (R)-2-(4-((5-cyclopropyl-3-(2,6-dichlorophenyl)isoxazol-4-yl)methyl)-2-methylpiperazin-1-yl)-4-methoxybenzo[d]thiazole-6-carboxylic acid]

Purity/initial purity ([1]; 25° C./60% RH/1 week): 99.9%
Form change ([1]; 25° C./60% RH/1 week): No
Purity/initial purity ([1]; 40° C./75% RH/1 week): 99.9%
Form change ([1]; 40° C./75% RH/1 week): No
HPLC purity after storage (in words) ([1]; 80° C. for 1 day): decreased
Purity/initial purity ([1]; 80° C./1 day): 99.5%
Form change ([1]; 80° C./1 day): No
form change (in words) ([1]; all test conditions): no form change was observed
solubility in FaSSIF and FeSSIF (in words) [2]: significant solubility improvement
FC: form change ([2]; FaSSIF, 1 hr): No
S: solubility ([2]; FaSSIF, 1 hr): 320 µg/mL
pH ([2]; FaSSIF, 1 hr): 6.3
FC: form change ([2]; FaSSIF, 4 hrs): No
S: solubility ([2]; FaSSIF, 4 hrs): 460 µg/mL
pH ([2]; FaSSIF, 4 hrs): 6.3
FC: form change ([2]; FaSSIF, 24 hrs): No
S: solubility ([2]; FaSSIF, 24 hrs): 640 µg/mL
pH ([2]; FaSSIF, 24 hrs): 6.3
FC: form change ([2]; FeSSIF, 1 hr): No
S: solubility ([2]; FeSSIF, 1 hr): 660 µg/mL
pH ([2]; FeSSIF, 1 hr): 5.1
FC: form change ([2]; FeSSIF, 4 hrs): No
S: solubility ([2]; FeSSIF, 4 hrs): 710 µg/mL
pH ([2]; FeSSIF, 4 hrs): 5.1
FC: form change ([2]; FeSSIF, 24 hrs): No
S: solubility ([2]; FeSSIF, 24 hrs): 780 µg/mL
pH ([2]; FeSSIF, 24 hrs): 5.0
FC: form change ([2]; H2O, 1 hr): No
S: solubility ([2]; H2O, 1 hr): 0.6 µg/mL
pH ([2]; H2O, 1 hr): 3.0
FC: form change ([2]; H2O, 4 hrs): No
S: solubility ([2]; H2O, 4 hrs): 0.7 µg/mL
pH ([2]; H2O, 4 hrs): 3.0
FC: form change ([2]; H2O, 24 hrs): No
S: solubility ([2]; H2O, 24 hrs): 0.6 µg/mL
pH ([2]; H2O, 24 hrs): 3.0
FC: form change ([2]; SGF, 1 hr): No
S: solubility ([2]; SGF, 1 hr): 31 µg/mL
pH ([2]; SGF, 1 hr): 1.9
FC: form change ([2]; SGF, 4 hrs): No
S: solubility ([2]; SGF, 4 hrs): 30 µg/mL
pH ([2]; SGF, 4 hrs): 1.9
FC: form change ([2]; SGF, 24 hrs): Yes
S: solubility ([2]; SGF, 24 hrs): 43 µg/mL
pH ([2]; SGF, 24 hrs): 1.7
solubility in SGF, FaSSIF, and FeSSIF compared with free base (form A) and HCl salt (form B) ([2]; SGF, FaSSIF, FeSSIF): improved solubility
solubility in water, ranking among form A, form B, form D ([2]; water): lowest solubility
water uptake ([3]; in the range of 0% RH to 20% RH, platform between 20% RH and 80% RH): 2.6%
SMILES: COc1cc(C(=O)O)cc2sc(N3CCN(Cc4c(-c5c(Cl)cccc5Cl)noc4C4CC4)C[C@H]3C)nc12 [HBr salt Form D, (R)-2-(4-((5-cyclopropyl-3-(2,6-dichlorophenyl)isoxazol-4-yl)methyl)-2-methylpiperazin-1-yl)-4-methoxybenzo[d]thiazole-6-carboxylic acid]

Purity/initial purity ([1]; 25° C./60% RH/1 week): 100.0%
Form change ([1]; 25° C./60% RH/1 week): No
Purity/initial purity ([1]; 40° C./75% RH/1 week): 99.9%
Form change ([1]; 40° C./75% RH/1 week): No
solid state stability (overall, in words) [1, 5]: good solid state stability
Purity/initial purity ([1]; 80° C./1 day): 99.8%
Form change ([1]; 80° C./1 day): No
FC: form change ([2]; FaSSIF, 1 hr): No
S: solubility ([2]; FaSSIF, 1 hr): 16 µg/mL
pH ([2]; FaSSIF, 1 hr): 6.4
FC: form change ([2]; FaSSIF, 4 hrs): No
S: solubility ([2]; FaSSIF, 4 hrs): 17 µg/mL
pH ([2]; FaSSIF, 4 hrs): 6.5
FC: form change ([2]; FaSSIF, 24 hrs): No
S: solubility ([2]; FaSSIF, 24 hrs): 22 µg/mL
pH ([2]; FaSSIF, 24 hrs): 6.4
FC: form change ([2]; FeSSIF, 1 hr): No
S: solubility ([2]; FeSSIF, 1 hr): 51 µg/mL
pH ([2]; FeSSIF, 1 hr): 5.0
FC: form change ([2]; FeSSIF, 4 hrs): No
S: solubility ([2]; FeSSIF, 4 hrs): 56 µg/mL
pH ([2]; FeSSIF, 4 hrs): 5.1
FC: form change ([2]; FeSSIF, 24 hrs): No
S: solubility ([2]; FeSSIF, 24 hrs): 56 µg/mL
pH ([2]; FeSSIF, 24 hrs): 5.1
FC: form change ([2]; H2O, 1 hr): No
S: solubility ([2]; H2O, 1 hr): 3 µg/mL
pH ([2]; H2O, 1 hr): 6.2
FC: form change ([2]; H2O, 4 hrs): No
S: solubility ([2]; H2O, 4 hrs): 2.3 µg/mL
pH ([2]; H2O, 4 hrs): 6.3
FC: form change ([2]; H2O, 24 hrs): No
S: solubility ([2]; H2O, 24 hrs): 4.6 µg/mL
pH ([2]; H2O, 24 hrs): 6.4
FC: form change ([2]; SGF, 1 hr): No
S: solubility ([2]; SGF, 1 hr): 20 µg/mL
pH ([2]; SGF, 1 hr): 2.1
FC: form change ([2]; SGF, 4 hrs): No
S: solubility ([2]; SGF, 4 hrs): 18 µg/mL
pH ([2]; SGF, 4 hrs): 1.8
FC: form change ([2]; SGF, 24 hrs): No
S: solubility ([2]; SGF, 24 hrs): 17 µg/mL
pH ([2]; SGF, 24 hrs): 2.0
solubility ([2]; water, 37 °C, thermodynamic from solid, text summary of Table 15): < 7 µg/mL
hygroscopicity (in words) ([3]; DVS): non-hygroscopic
water uptake ([3]; at 80% RH): 0.15%
solubility ([4]; 2-MeTHF): > 40000 µg/mL
solubility ([4]; ACN): 4800 to 9500 µg/mL (≈ 8.37 to 16.6 mM)
solubility ([4]; Acetone): > 42000 µg/mL
solubility ([4]; CPME): 11500 to 23000 µg/mL (≈ 20.1 to 40.1 mM)
solubility ([4]; CPME/n-heptane (2:1)): 2300 to 4600 µg/mL (≈ 4.01 to 8.02 mM)
solubility ([4]; EtOAc): 10000 to 20000 µg/mL (≈ 17.4 to 34.9 mM)
solubility ([4]; IPAc): 3800 to 6300 µg/mL (≈ 6.63 to 11 mM)
solubility ([4]; MIBK): 10000 to 20000 µg/mL (≈ 17.4 to 34.9 mM)
solubility ([4]; MIBK/n-heptane (2:1)): 4200 to 7000 µg/mL (≈ 7.32 to 12.2 mM)
solubility ([4]; MeOH): 10500 to 21000 µg/mL (≈ 18.3 to 36.6 mM)
solubility ([4]; MeOH/H2O (9:1)): 5300 to 10500 µg/mL (≈ 9.24 to 18.3 mM)
solubility ([4]; THF): > 40000 µg/mL
solubility ([4]; THF/n-heptane (2:1)): > 38000 µg/mL
SMILES: COc1cc(C(=O)O)cc2sc(N3CCN(Cc4c(-c5c(Cl)cccc5Cl)noc4C4CC4)C[C@H]3C)nc12 [Form A, (R)-2-(4-((5-cyclopropyl-3-(2,6-dichlorophenyl)isoxazol-4-yl)methyl)-2-methylpiperazin-1-yl)-4-methoxybenzo[d]thiazole-6-carboxylic acid]
